For one assay, the system named is bovine TM cells. Description: TM cell volume by electronic cell sizing (Coulter Counter). It counts as cell-based. As to the method: By the second method, TM cells were trypsinized briefly in Ca-free medium, then rinsed with medium containing trypsin inhibitor and suspended in Hepes MEM. Mean cell volumes were then analyzed by electronic cell sizing on a Coulter Counter™ […] (Model ZM), with channelizer (C256), using at least 50,000 cells per data point and an orifice diameter of 140 μm. Aliquots of suspended cells were diluted into Hepes MEM containing the tonicity and/or agents to be evaluated. Mean cell volumes of each suspension aliquot were followed over time, starting at 1 minute after addition of cells to the assay media. Cell suspensions were maintained at 37° C. throughout the assay period. Absolute volumes (picoliters/cell) were calculated from distribution curves of cell diameter, using a standard curve generated by polystyrene latex beads of known diameter.
In order to determine whether the Na—K—Cl cotransporter of TM cells may play a role in restoration of intracellular volume following hypertonicity-induced cell shrinkage, we evaluated the effect of hypertonicity on TM cell volume and Na^+—K^+—2Cl^− cotransport activity. […] The intracellular volume of the cells then increased over a slower time course, with volume recovering to approximately 84% by 33 minutes as shown in FIG. 3A.

The test system of a further assay is TM cell monolayers. Description: Flux of 14C-sucrose across confluent TM cell monolayers on filters. The format is cell-based. Particulars: 15 minute assay period. As to the method:
To investigate the possibility that alteration of TM intracellular volume results in modulation of trabecular meshwork barrier permeability, we evaluated the flux of ^14C-sucrose across confluent TM cell monolayers grown on permeable filters. Cells were grown to confluence on collagen-coated dual level tissue culture filter inserts placed in covered multiwell cluster plates, as shown schematically in […], wherein lower chamber 2 is formed by suspension of membrane 4 with cells attached into holder 6, which is covered by cover 8. Upper chamber 10 is formed by the space within the holder above the membrane. Growth media (EMEM) volumes of 0.5 and 1.5 ml were used for upper and lower chambers, respectively, as previously described (Kajimura, et al., FASEB J, 8:A1045, 1994) for evaluation of endothelial cell monolayers and for evaluation of water permeability of TM cell monolayers (Perkins, et al., Invest. Ophthalmol. Vis. Sci., 29:1836-1846, 1988). One insert was placed in each of 12 wells in a cluster plate. Permeability was assessed as the flux of ^14C-sucrose across the TM cell monolayers. […] Sucrose content of the samples was determined by […] methods. The amount of solute was calculated from the radioactivity present in the sample and the specific activity (cpm/μmol) of the ^14C-sucrose.

The next assay concerns eye of a rabbit. Description: Intra-ocular pressure in rabbits after subconjunctival injection. The format is in vivo. On the procedure: Male albino New Zealand rabbits weighing≧2 Kg were used for in vivo experiments performed under various active animal use protocols approved by the Institutional Animal Care and Use Committee at UC Davis. Animals were sedated with an intravenous dose of Napentabarbitol, 1-2 mg/Kg to permit their handling and frequent measurement of intra-ocular pressure (IOP). Topical anesthesia consisting of Proparacaine HCl (Alcaine™) was used for IOP measurements. A pneumatonometer (Mentor O & O Classic Model 30 Penumatonometer™, Norwell, Mass.) calibrated to a known (25 mmHg) pressure prior to each experiment was used for all IOP measurements. This model of Pneumatonometer provides a readout of standard deviation of each measurement; only measurements with a standard deviation of≦1 mmHg were accepted and most were less than 0.5 mmHg. Following sedation, IOP measurements were carried out over at least 30 minutes to assure that a stable baseline IOP was present.
Drugs and/or vehicle was administered to one eye of each animal via subconjunctival injection in order to bypass any barriers to drug penetration, such as an intact corneal and conjunctival epithelium and to achieve rapid and high concentrations of drug, bypassing epithelial barriers. The contralateral eye treated only with vehicle served as a control for each animal. Two syringes were prepared for each experiment, one containing drug and vehicle, the other containing only vehicle. […] Injections raised a prominent bleb, confirming subconjunctival placement of the drug or vehicle. This bleb then smoothed out over about ten minutes, indicating diffusion of the drug or vehicle throughout the subconjunctival space.
Measurements of intra-ocular pressure were taken at various intervals following the subconjunctival administration of the drug and/or vehicle. IOP in both eyes fluctuated over time reflecting the level of anesthesia. During the course of the experiment, the animal handlers and investigators were masked as to which eve had received the drug or control injection.

Turning to `CCCCNc1cc(C(=O)O)cc(S(N)(=O)=O)c1Oc1ccccc1` [bumetanide], the intracellular volume entry in the assay with bovine TM cells (30 minute exposure, bumetanide 10 μM, ethacrynic acid 1 mM, versus Hepes MEM control) is listed as “significant reduction”. The “volume recovery after hypertonicity-induced cell shrinkage” value with bovine TM cells (hypertonic (400 mOsm) medium containing bumetanide) is on record as “greatly attenuated”. Moreover, in the assay on TM cell monolayers, the “monolayer permeability to sucrose” value is on record as “increased”. In the assay with eye of a rabbit (average of two experiments, FIG. 6), the “average IOP lowering effect” value is listed as “over 20%”. Besides, the “effect on IOP” value in the assay on eye of a rabbit (bumetanide 10^−5 M in DMSO, 0.1 cc subconjunctival, first animal) was “rapid and pronounced and lasted beyond two hours”.
